Results published in US20200245667A1, “OLIGOSACCHARIDE COMPOSITIONS AND THEIR USE DURING TRANSITIONAL PHASES OF THE MAMMALIAN GUT MICROBIOME” (EVOLVE BIOSYSTEMS, INC., priority 2017, published 2020).

Assays:
L. reuteri = details: Rattanaprasert et al. 2014; cited from earlier work
B. bifidum = assay: free sugar consumption by intestinal microbiota; type: cell-based; design: key: *: predicted, but not observed; ND: Not Determined; details: predicted, but not observed
Excerpt: (§1) A number of bacterial species are provided in Table 2, since the inventors have discovered preferred carbon source(s) for certain bacteria. Certain embodiments of the invention described herein would include one or more of any of the species found in Table 2.

B. breve = assay: free sugar consumption by intestinal microbiota; type: cell-based; design: key: *: predicted, but not observed; ND: Not Determined; details: predicted, but not observed
Excerpt: as §1

B. longum = assay: free sugar consumption by intestinal microbiota; type: cell-based; design: key: *: predicted, but not observed; ND: Not Determined; details: predicted, but not observed
Excerpt: as §1

B. infantis = assay: free sugar consumption by intestinal microbiota; type: cell-based; design: key: *: predicted, but not observed; ND: Not Determined; details: predicted, but not observed
Excerpt: as §1

| SMILES | growth of Lactobacillus reuteri on the sugar (L. reuteri) | preferences for free sugar consumption (B. bifidum) | preferences for free sugar consumption (B. breve) | preferences for free sugar consumption (B. longum) | preferences for free sugar consumption (B. infantis) |
| --- | --- | --- | --- | --- | --- |
| O=C[C@@H](O)[C@H](O)[C@H](O)CO [Arabinose] | known to grow on arabinose | – | – | – | – |
| C[C@H](O)[C@@H](O)[C@@H](O)[C@H](O)C=O [Fucose] | – | * | * | * | * |
| C[C@H](O)[C@H](O)[C@@H](O)[C@@H](O)C=O [Rhamnose] | utilize rhamnose as a terminal electron acceptor to improve its growth | – | – | – | – |
